Data as given in patent US20240409574A1, “SMALL MOLECULES FOR DOT1L DEGRADATION AND USES THEREOF” (DANA-FARBER CANCER INSTITUTE, INC., priority 2021, published 2024).

Columns and labels:
DOT1L:CRBN = DOT1L:CRBN (Homo sapiens, UniProt Q8TEK3+Q96SW2); assay: DOT1L:CRBN-DDB1 dimerization assay (AlphaScreen); format: binding; conditions: FIG. 2, GST-CRBN-DDB1 and 6xHIS DOT1L 125 nM
Procedure: Example 14: DOT1L:Cereblon (CRBN)-DNA Damage-Binding Protein 1 (DDB1)/DOT1L Dimerization Assay
GST-CRBN-DDB1 and DOT1L (6×HIS-tagged) were both diluted to 125 nM in assay buffer (50 mM 2-[4-(2-Hydroxyethyl)piperazin-1-yl]ethane-1-sulfonic acid (HEPES) pH 7.4, 150 mM NaCl, and 0.01% Tween®, 2, 0.1% bovine serum albumin (BSA)), and 20 μL of protein mixture was added to each well of a 384-well AlphaPlate™ (PerkinElmer®). Compounds were then added at 100 nL per well from DMSO stock plates using a Janus®, Workstation (PerkinElmer®). Following a 1-hour incubation at room temperature, 20 μL Nickel Chelate AlphaLISA® Acceptor and Glutathione AlphaLISA® Donor beads (PerkinElmer®) diluted to 20 ng/μl in assay buffer was added to each well. After a 1-hour incubation at room temperature, luminescence was measured on the Envision® 2104 plate reader (PerkinElmer®). Data were analyzed and plotted using GraphPad PRISM v6 and dimerization amplitude, mean, and s.d. values were determined using the ‘Gaussian’ analysis module.
DOT1L:CRBN dimerization by inventive bifunctional compounds 2, 3, and 6, and pomalidomide and EPZ5676 was assessed by AlphaScreen® assay.

DOT1L [1] = molecular target: T1, DOT1L (Homo sapiens, UniProt Q8TEK3); assay: DOT1L fluorescence polarization (FP) displacement assay; format: binding; conditions: FIG. 1
Procedure: Example 13: Cellular Disruptor of Telomeric Silencing 1-Like (DOT1L) Fluorescence Polarization (FP) Displacement Assay
DOT1L FP displacement assays were conducted with inventive bifunctional compounds 2, 3, and 6, and pomalidomide and positive control EPZ5676 at different concentrations [M], measured in [M] per mP.
Target sequence in this assay (Q8TEK3 whole entry, species assumed): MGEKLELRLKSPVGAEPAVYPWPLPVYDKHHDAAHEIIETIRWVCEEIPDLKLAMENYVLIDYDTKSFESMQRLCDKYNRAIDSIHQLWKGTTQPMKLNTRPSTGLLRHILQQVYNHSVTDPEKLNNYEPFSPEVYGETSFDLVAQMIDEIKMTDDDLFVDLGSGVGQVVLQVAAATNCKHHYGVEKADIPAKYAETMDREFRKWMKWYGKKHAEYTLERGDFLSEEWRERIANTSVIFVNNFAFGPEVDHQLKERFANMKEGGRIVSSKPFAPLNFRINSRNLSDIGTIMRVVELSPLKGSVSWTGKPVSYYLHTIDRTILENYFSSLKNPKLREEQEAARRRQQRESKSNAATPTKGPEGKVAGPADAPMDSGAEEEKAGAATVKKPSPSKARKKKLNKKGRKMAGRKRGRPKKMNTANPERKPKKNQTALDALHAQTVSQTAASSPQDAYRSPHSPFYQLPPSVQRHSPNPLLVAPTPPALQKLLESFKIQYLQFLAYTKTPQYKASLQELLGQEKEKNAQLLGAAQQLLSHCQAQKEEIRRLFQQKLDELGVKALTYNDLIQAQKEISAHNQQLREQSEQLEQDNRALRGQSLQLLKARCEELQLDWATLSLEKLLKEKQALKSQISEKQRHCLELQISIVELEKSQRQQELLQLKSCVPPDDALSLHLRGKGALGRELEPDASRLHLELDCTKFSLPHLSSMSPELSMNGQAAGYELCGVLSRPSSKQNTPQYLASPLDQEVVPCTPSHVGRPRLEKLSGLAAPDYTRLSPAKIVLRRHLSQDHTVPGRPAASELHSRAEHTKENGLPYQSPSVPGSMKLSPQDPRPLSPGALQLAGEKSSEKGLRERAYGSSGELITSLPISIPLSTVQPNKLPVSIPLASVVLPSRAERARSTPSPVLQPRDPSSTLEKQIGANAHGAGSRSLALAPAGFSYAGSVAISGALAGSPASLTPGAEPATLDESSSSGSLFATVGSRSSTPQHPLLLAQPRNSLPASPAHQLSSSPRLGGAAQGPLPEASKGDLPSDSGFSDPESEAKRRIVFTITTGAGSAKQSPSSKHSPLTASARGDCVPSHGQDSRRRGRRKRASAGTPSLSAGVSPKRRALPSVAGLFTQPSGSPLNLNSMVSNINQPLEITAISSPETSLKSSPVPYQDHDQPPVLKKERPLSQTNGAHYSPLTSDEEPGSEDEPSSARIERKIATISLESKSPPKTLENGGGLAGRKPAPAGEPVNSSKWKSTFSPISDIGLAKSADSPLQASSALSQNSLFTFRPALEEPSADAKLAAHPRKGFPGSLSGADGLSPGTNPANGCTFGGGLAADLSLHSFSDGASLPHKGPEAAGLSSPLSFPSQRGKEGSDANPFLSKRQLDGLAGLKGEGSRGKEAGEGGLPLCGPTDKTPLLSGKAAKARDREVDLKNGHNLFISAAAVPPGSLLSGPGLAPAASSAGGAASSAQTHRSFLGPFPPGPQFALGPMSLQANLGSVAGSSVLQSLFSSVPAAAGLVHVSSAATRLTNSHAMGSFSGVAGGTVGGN

EOL1 cells = assay: Cell proliferation assay in EOL1 cells (trypan blue cell counts); format: cell-based, human; conditions: FIG. 3, 4B, 6B, 7, 8, 9B
Procedure: Example 15: Cell Proliferation Assays in EOL1 (Human Eosinophilic Leukaemia) Cells with Inventive Bifunctional Compounds
EOL1 cells were seeded into a 6-well plate at a density of 0.25×10^6 cells/well and then treated compounds with indicated concentration and incubated for the indicated times. After staining with trypan blue, cell counts were performed using a Countess® II FL Automated Cell Counter (ThermoFisher Scientific).

MV411 cells = assay: Cell proliferation assay in MV411 cells (trypan blue cell counts); format: cell-based, human; conditions: FIG. 5B, 10B
Procedure: Example 16: Cell Proliferation Assays in MV411 (Human Myelomonocytic Leukemia) Cells with Inventive Bifunctional Compounds
MV411 cells were seeded into a 6-well plate at a density of 0.25×10^6 cells/well and then treated compounds with indicated concentration and incubated for the indicated times. After staining with trypan blue, cell counts were performed using a Countess® II FL Automated Cell Counter (ThermoFisher Scientific).

DOT1L [2] = molecular target: T1, DOT1L; assay: Western blot of DOT1L degradation in MV411 cells; format: cell-based; parameters: endogenous in cells; conditions: FIG. 5A, 10A
Target sequence in this assay (Q8TEK3 whole entry): as the sequence (Q8TEK3 whole entry, species assumed) above

DOT1L [3] = molecular target: T1, DOT1L; assay: Western blot of DOT1L degradation in EOL1 cells; format: cell-based; parameters: degraded DOT1L in EOL1 cells; endogenous in cells; host or cells: EOL1; conditions: FIG. 4A, 6A, 9A
Target sequence in this assay (Q8TEK3 whole entry): as the sequence (Q8TEK3 whole entry, species assumed) above

THP1 cells = assay: Cell proliferation assay in THP1 cells (trypan blue cell counts); format: cell-based; conditions: FIG. 12
Procedure: Example 18: Cell Proliferation Assays in THP1 (Acute Monocytic Leukemia) Cells with Inventive Bifunctional Compounds
THP1 cells were seeded into a 6-well plate at a density of 0.25×10^6 cells/well and then treated compounds with indicated concentration and incubated for the indicated times. After staining with trypan blue, cell counts were performed using a Countess® II FL Automated Cell Counter (ThermoFisher Scientific).

SEMK2 cells = assay: Cell proliferation assay in SEMK2 cells (trypan blue cell counts); format: cell-based; conditions: FIG. 11
Procedure: Example 17: Cell Proliferation Assays in SEMK2 (B Acute Lymphoblastic Leukemia) Cells with Inventive Bifunctional Compounds
SEMK2 cells were seeded into a 6-well plate at a density of 0.25×10^6 cells/well and then treated compounds with indicated concentration and incubated for the indicated times. After staining with trypan blue, cell counts were performed using a Countess® II FL Automated Cell Counter (ThermoFisher Scientific).

Sequence of DOT1L:CRBN (Q8TEK3 whole entry, species assumed): as above
Sequence of DOT1L:CRBN (Q96SW2 whole entry, species assumed): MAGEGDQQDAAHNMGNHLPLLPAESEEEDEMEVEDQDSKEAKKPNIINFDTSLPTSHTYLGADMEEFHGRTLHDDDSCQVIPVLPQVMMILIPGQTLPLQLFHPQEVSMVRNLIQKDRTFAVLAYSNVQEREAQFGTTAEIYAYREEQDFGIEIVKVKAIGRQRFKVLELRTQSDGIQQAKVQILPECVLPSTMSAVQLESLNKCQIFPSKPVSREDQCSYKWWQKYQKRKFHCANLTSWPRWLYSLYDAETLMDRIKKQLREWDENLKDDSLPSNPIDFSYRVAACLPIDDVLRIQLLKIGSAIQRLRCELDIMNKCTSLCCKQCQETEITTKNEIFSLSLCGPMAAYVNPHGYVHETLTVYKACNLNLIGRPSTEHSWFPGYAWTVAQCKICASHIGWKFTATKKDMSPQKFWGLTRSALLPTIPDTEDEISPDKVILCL
Sequence of DOT1L:CRBN (Q16531 whole entry partner, species assumed): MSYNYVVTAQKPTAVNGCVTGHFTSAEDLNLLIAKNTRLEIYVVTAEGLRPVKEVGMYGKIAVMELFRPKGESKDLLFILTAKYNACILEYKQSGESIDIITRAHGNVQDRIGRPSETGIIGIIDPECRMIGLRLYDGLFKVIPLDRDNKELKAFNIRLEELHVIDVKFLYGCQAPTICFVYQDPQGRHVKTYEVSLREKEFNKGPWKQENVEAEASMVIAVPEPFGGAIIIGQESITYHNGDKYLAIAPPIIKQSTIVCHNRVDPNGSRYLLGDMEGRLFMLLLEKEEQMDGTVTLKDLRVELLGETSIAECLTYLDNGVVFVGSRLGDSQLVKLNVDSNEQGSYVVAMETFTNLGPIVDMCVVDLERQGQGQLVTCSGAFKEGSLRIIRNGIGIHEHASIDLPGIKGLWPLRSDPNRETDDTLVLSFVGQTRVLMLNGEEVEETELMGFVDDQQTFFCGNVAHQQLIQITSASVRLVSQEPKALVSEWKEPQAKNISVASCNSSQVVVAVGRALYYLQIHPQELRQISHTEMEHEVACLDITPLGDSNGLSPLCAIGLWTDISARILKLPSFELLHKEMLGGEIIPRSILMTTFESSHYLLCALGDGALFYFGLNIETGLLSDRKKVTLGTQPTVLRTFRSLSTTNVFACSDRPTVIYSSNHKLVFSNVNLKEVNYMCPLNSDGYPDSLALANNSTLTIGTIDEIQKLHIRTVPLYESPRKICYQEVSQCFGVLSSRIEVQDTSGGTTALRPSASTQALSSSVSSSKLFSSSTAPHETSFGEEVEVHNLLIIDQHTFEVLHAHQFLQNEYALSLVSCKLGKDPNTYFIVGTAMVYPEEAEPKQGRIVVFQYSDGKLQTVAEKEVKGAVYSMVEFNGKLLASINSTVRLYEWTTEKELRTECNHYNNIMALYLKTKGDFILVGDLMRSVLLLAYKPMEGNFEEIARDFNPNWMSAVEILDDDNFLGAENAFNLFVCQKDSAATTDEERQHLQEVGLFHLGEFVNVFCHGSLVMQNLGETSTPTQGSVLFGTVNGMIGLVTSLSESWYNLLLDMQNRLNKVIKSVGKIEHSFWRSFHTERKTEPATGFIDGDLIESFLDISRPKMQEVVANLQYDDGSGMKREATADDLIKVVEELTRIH

SMILES | formation of ternary complexes between DOT1L and CRBN (DOT1L:CRBN) | DOT1L binding via displacement of FITC-probe in FP assay (DOT1L [1]) | EOL1 cell viability (EOL1 cells) | MV411 cell viability (MV411 cells) | DOT1L degradation in MV411 cells (DOT1L [2]) | DOT1L degradation in EOL1 cells (DOT1L [3]) | THP1 cell viability (THP1 cells) | SEMK2 cell viability (SEMK2 cells)
CC(C)N(C[C@H]1O[C@@H](n2cnc3c(NCCCCNC(=O)CCCCCCCCCCCCCCCNc4cccc5c4C(=O)N(C4CCC(=O)NC4=O)C5=O)ncnc32)[C@H](O)[C@@H]1O)C1CC(CCc2nc3cc(C(C)(C)C)ccc3[nH]2)C1 (stereo partly drawn) [Compound 2, N-(4-((9-((2R,3R,4S,5R)-5-((3-(2-(5-(tert-butyl)-1H-benzo[d]imidazol-2-yl)ethyl)cyclobutyl)(isopropyl)amino)methyl)-3,4-dihydroxytetrahydrofuran-2-yl)-9H-purin-6-yl)amino)butyl)-16-((2-(2,6-dioxopiperidin-3-yl)-1,3-dioxoisoindolin-4-ylamino)hexadecanamide] | induced the formation of ternary complexes between the DOT1L and CRBN | bound DOT1L via displacement of fluorescein isothiocyanate (FITC)-probe in FP assay | reduced EOL1 cell viability in a dose dependent manner and at early time points | reduced MV411 cell viability in a dose dependent manner and at early time points | degraded DOT1L in MV411 cells and in a dose dependent manner up to 10.0 μM | degraded DOT1L in EOL1 cells and in a dose dependent manner up to 2.5 μM |  | 
CC(C)N(C[C@H]1O[C@@H](n2cnc3c(NCCCCNC(=O)CCCCCCCCCCCCCCCNc4cccc5c4C(=O)N(C4CCC(=O)NC4=O)C5=O)ncnc32)[C@H](O)[C@@H]1O)C1CC(CCc2nc3cc(C(C)(C)C)ccc3[nH]2)C1 (some centres unmarked) [Compound 3] | induced the formation of ternary complexes between the DOT1L and CRBN | bound DOT1L via displacement of fluorescein isothiocyanate (FITC)-probe in FP assay | reduced EOL1 cell viability in a dose dependent manner and at early time points |  |  | degraded DOT1L in EOL1 cells and in a dose dependent manner up to 5.0 μM |  | 
Cc1ncsc1-c1ccc(CNC(=O)[C@H]2C[C@H](O)CN2C(=O)[C@H](NC(=O)CCCCCCCNC(=O)CCCC(=O)NCCCCNc2ncnc3c2ncn3[C@@H]2O[C@H](CN(C(C)C)C3CC(CCc4nc5cc(C(C)(C)C)ccc5[nH]4)C3)[C@@H](O)[C@H]2O)C(C)(C)C)cc1 (stereo partly drawn) [Compound 4, N1-(4-((9-((2R,3R,4S,5R)-5-(((3-(2-(5-(tert-butyl)-1H-benzo[d]imidazol-2-yl)ethyl)cyclobutyl)(isopropyl)amino)methyl)-3,4-dihydroxytetrahydrofuran-2-yl)-9H-purin-6-yl)amino)butyl)-N5-(8-(((R)-1-((2R,4S)-4-hydroxy-2-((4-(4-methylthiazol-5-yl)benzyl)carbamoyl)pyrrolidin-1-yl)-3,3-dimethyl-1-oxobutan-2-yl)amino)-8-oxooctyl)glutaramide] |  |  | did not reduce EOL1 cell viability in a dose dependent manner |  |  |  |  | 
CC(C)N(C[C@H]1O[C@@H](n2ccc3c(NCCCCNC(=O)CCCCCCCCCCCCCCCNc4cccc5c4C(=O)N(C4CCC(=O)NC4=O)C5=O)ncnc32)[C@H](O)[C@@H]1O)C1CC(CCc2nc3cc(C(C)(C)C)ccc3[nH]2)C1 (stereo partly drawn) [Compound 5, N-(4-((7-((2R,3R,4S,5R)-5-(((3-(2-(5-(tert-butyl)-1H-benzo[d]imidazol-2-yl)ethyl)cyclobutyl)(isopropyl)amino)methyl)-3,4-dihydroxytetrahydrofuran-2-yl)-7H-pyrrolo[2,3-d]pyrimidin-4-yl)amino)butyl)-16-((2-(2,6-dioxopiperidin-3-yl)-1,3-dioxoisoindolin-4-yl)amino)hexadecanamide] |  |  | did not reduce EOL1 cell viability in a dose dependent manner and at early time points |  |  |  |  | 
CC(C)N(CCCNC(=O)Nc1ccc(C(C)(C)C)cc1)C[C@H]1O[C@H](n2cnc3c(NCCCCNC(=O)CCCCCCCCCCCCCCCNc4cccc5c4C(=O)N(C4CCC(=O)NC4=O)C5=O)ncnc32)[C@H](O)[C@@H]1O (stereo partly drawn) [Compound 6, N-(4-((9-((2S,3R,4S,5R)-5-(((3-(3-(4-(tert-butyl)phenyl)ureido)propyl)(isopropyl)amino)methyl)-3,4-dihydroxytetrahydrofuran-2-yl)-9H-purin-6-yl)amino)butyl)-16-((2-(2,6-dioxopiperidin-3-yl)-1,3-dioxoisoindolin-4-yl)amino)hexadecanamide] | induced the formation of ternary complexes between the DOT1L and CRBN | bound DOT1L via displacement of fluorescein isothiocyanate (FITC)-probe in FP assay | reduced EOL1 cell viability in a dose dependent manner and at early time points | reduced MV411 cell viability in a dose dependent manner and at early time points | degraded DOT1L in MV411 cells and in a dose dependent manner up to 5.0 μM | degraded DOT1L in EOL1 cells and in a dose dependent manner up to 5.0 μM | reduced THP1 cell viability in a dose dependent manner and at early time points | reduced SEMK2 cell viability in a dose dependent manner and at early time points
